US9796704B2, “Substituted quinazolines as receptor-type kinase inhibitors” (Symphony Evolution, Inc., priority 2002, dated 2017)
Where two headings read alike, the source gives them in different places.

Experiments:
[1] = target: EphA2 (Homo sapiens (Human), UniProt P29317); experiment: EphA2 kinase inhibition, luciferase-coupled chemiluminescent assay (LCCA)
[2] = target: EGFR (Homo sapiens (Human), UniProt P00533); experiment: EGFR kinase inhibition, luciferase-coupled chemiluminescent assay (LCCA)
[3] = target: EphB4 (Homo sapiens (Human), UniProt P54760); experiment: EphB4 kinase inhibition, 33P phosphoryl transfer assay (radiometric); format: biochemical
[4] = target: ErbB2 (Homo sapiens (Human), UniProt P04626); experiment: ErbB2 kinase inhibition, AlphaScreen; format: biochemical
Description: Kinase activity and compound inhibition are investigated using one or more of the three assay formats described below. The ATP concentrations are selected near its Michaelis-Menten constant (KM) for each individual kinase. Dose-response experiments are performed at ten different inhibitor concentrations in a 384-well plate format. […] These parameters are obtained by nonlinear regression algorithm built into ActivityBase software (available from ID Business Solutions Ltd., of Guildford, Surrey, UK). ^33P Phosphoryl Transfer Assay (Radiometric)

[5] = target: KDR (Homo sapiens (Human), UniProt P35968); experiment: KDR kinase inhibition, luciferase-coupled chemiluminescent assay (LCCA)
KDR, sequence (P35968 807-1356): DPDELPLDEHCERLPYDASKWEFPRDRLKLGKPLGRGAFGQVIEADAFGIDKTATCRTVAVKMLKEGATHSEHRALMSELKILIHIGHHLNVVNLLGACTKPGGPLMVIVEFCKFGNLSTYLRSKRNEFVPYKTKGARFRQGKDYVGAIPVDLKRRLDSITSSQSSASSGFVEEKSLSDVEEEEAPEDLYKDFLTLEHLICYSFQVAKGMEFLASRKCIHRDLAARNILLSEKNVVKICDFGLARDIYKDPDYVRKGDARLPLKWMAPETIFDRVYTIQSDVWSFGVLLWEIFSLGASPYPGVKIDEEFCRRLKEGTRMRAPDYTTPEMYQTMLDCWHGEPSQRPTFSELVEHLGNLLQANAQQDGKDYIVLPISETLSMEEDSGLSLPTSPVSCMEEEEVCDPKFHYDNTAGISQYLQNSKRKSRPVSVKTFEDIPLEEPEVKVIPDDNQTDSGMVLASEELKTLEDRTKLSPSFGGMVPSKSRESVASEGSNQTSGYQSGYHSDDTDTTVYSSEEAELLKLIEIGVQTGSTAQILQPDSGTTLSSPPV
Description: Kinase activity and compound inhibition are investigated using one or more of the three assay formats described below. The ATP concentrations are selected near its Michaelis-Menten constant (KM) for each individual kinase. Dose-response experiments are performed at ten different inhibitor concentrations in a 384-well plate format. […] Typically H is close to unity.
In the LCCA assays, kinase activity is measured by the ATP consumption that is accurately measured by luciferase-coupled chemiluminescence. Greiner 384-well white clear bottom medium binding plates are used for LCCA. Briefly the kinase reaction is initiated by mixing compounds, ATP and kinases in a 20 μL volume. At the end of the kinase reaction, a 20 μL luciferase-luciferin mix is added and the chemiluminescent signal is read on a Wallac Victor^2 reader.

EphB4, sequence (P54760 605-890): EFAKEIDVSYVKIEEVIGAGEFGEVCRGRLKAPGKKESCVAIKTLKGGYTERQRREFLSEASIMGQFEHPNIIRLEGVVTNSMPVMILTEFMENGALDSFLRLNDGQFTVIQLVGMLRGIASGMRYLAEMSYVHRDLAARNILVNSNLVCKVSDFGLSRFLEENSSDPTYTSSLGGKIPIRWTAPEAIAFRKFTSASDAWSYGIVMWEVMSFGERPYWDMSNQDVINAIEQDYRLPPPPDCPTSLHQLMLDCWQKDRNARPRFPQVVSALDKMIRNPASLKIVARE
EphA2, sequence (P29317 598-890): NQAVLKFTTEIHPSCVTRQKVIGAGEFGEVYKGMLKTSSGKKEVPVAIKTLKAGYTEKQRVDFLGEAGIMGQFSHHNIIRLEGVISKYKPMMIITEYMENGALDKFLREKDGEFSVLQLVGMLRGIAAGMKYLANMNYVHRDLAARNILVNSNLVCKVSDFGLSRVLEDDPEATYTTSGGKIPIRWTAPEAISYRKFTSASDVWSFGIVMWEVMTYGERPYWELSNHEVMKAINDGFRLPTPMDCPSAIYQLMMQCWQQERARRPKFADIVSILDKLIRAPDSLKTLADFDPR

COc1cc2c(Nc3ccc(Cl)c(Cl)c3)ncnc2cc1OCC1CN(C(=NC#N)N2CCCCC2)CCO1 (stereo in doubt) [Example 216, [(1E)-[2-({[4-[(3,4-dichlorophenyl)amino]-6-(methyloxy)quinazolin-7-yl]oxy}methyl)morpholin-4-yl](piperidin-1-yl)methylidene]cyanamide]
IC50 [1]: 0.05 to 1 µM | IC50 [2]: < 0.05 µM | IC50 [3]: < 0.05 µM | IC50 [4]: < 0.05 µM | IC50 [5]: 0.05 to 1 µM

COc1cc2c(Nc3cc(Cl)c(Cl)cc3F)ncnc2cc1O[C@H]1CO[C@H]2[C@@H]1OC[C@@H]2OC [Example 69, 1,4:3,6-dianhydro-2-O-[4-[(4,5-dichloro-2-fluorophenyl)amino]-6-(methyloxy)quinazolin-7-yl]-5-O-methyl-L-iditol]
IC50 ([1]; read-out: EphA2 IC50): < 0.05 µM | IC50 ([2]; read-out: EGFR IC50): < 0.05 µM | IC50 [3]: < 0.05 µM | IC50 [4]: < 0.05 µM | IC50 ([5]; read-out: KDR IC50): < 0.05 µM

COc1cc2c(Nc3ccc(Br)c(Cl)c3)ncnc2cc1O[C@H]1CO[C@@H]2CCO[C@H]12 [Example 77, 1,4:3,6-dianhydro-2-O-[4-[(4-bromo-3-chlorophenyl)amino]-6-(methyloxy)quinazolin-7-yl]-5-deoxy-D-xylo-hexitol]
IC50 ([1]; read-out: EphA2 IC50): 0.05 to 1 µM | IC50 ([2]; read-out: EGFR IC50): < 0.05 µM | IC50 [3]: < 0.05 µM | IC50 [4]: < 0.05 µM

COc1cc2c(Nc3ccc(Cl)c(Cl)c3)ncnc2cc1O[C@@H]1CO[C@@H]2[C@H]1OC[C@H]2F [Example 119, 1,4:3,6-dianhydro-2-deoxy-5-O-[4-[(3,4-dichlorophenyl)amino]-6-(methyloxy)quinazolin-7-yl]-2-fluoro-D-iditol]
IC50 ([1]; read-out: EphA2 IC50): < 0.05 µM | IC50 ([2]; read-out: EGFR IC50): < 0.05 µM | IC50 [3]: < 0.05 µM | IC50 [4]: < 0.05 µM | IC50 ([5]; read-out: KDR IC50): < 0.05 µM

COc1cc2c(Nc3cc(Br)cc(C(F)(F)F)c3)ncnc2cc1O[C@@H]1CO[C@@H]2[C@H]1OC[C@H]2F [Example 127, 1,4:3,6-dianhydro-5-O-[4-{[3-bromo-5-(trifluoromethyl)phenyl]amino}-6-(methyloxy)quinazolin-7-yl]-2-deoxy-2-fluoro-D-iditol]
IC50 ([1]; read-out: EphA2 IC50): < 0.05 µM | IC50 ([2]; read-out: EGFR IC50): < 0.05 µM | IC50 [3]: < 0.05 µM | IC50 [4]: < 0.05 µM | IC50 ([5]; read-out: KDR IC50): < 0.05 µM

COc1cc2c(Nc3ccc(Cl)c(Cl)c3)ncnc2cc1OCc1noc(C2CCCCN2C)n1 (stereo not shown) [Example 154, N-(3,4-dichlorophenyl)-6-(methyloxy)-7-({[5-(1-methylpiperidin-2-yl)-1,2,4-oxadiazol-3-yl]methyl}oxy)quinazolin-4-amine]
IC50 ([2]; read-out: EGFR IC50): < 0.05 µM | IC50 [3]: < 0.05 µM | IC50 [4]: < 0.05 µM

COc1cc2c(Nc3ccc(Cl)c(Cl)c3)ncnc2cc1OCc1cc(C)on1 [Example 160, N-(3,4-dichlorophenyl)-7-{[(5-methylisoxazol-3-yl)methyl]oxy}-6-(methyloxy)quinazolin-4-amine]
IC50 ([2]; read-out: EGFR IC50): < 0.05 µM | IC50 [3]: < 0.05 µM | IC50 [4]: < 0.05 µM

COc1cc2c(Nc3ccc(Cl)c(Cl)c3)ncnc2cc1OCc1ccc2nonc2c1 [Example 163, 7-[(2,1,3-benzoxadiazol-5-ylmethyl)oxy]-N-(3,4-dichlorophenyl)-6-(methyloxy)quinazolin-4-amine]
IC50 ([2]; read-out: EGFR IC50): < 0.05 µM | IC50 [3]: < 0.05 µM | IC50 [4]: < 0.05 µM

COc1cc2c(Nc3ccc(Cl)c(Cl)c3)ncnc2cc1OCc1noc(-c2ccc(C(F)(F)F)cc2)n1 [Example 167, N-(3,4-dichlorophenyl)-6-(methyloxy)-7-[({5-[4-(trifluoromethyl)phenyl]-1,2,4-oxadiazol-3-yl}methyl)oxy]quinazolin-4-amine]
IC50 ([1]; read-out: EphA2 IC50): < 0.05 µM | IC50 ([2]; read-out: EGFR IC50): < 0.05 µM | IC50 [3]: < 0.05 µM | IC50 [4]: < 0.05 µM

COc1cc2c(Nc3ccc(Cl)c(Cl)c3)ncnc2cc1OCc1cscn1 [Example 170, N-(3,4-dichlorophenyl)-6-(methyloxy)-7-[(1,3-thiazol-4-ylmethyl)oxy]quinazolin-4-amine]
IC50 ([1]; read-out: EphA2 IC50): < 0.05 µM | IC50 ([2]; read-out: EGFR IC50): < 0.05 µM | IC50 [3]: < 0.05 µM | IC50 [4]: < 0.05 µM

COc1cc2c(Nc3ccc(Cl)c(Cl)c3)ncnc2cc1OCc1c(-c2ccccc2)nn(C)c1Cl [Example 175, 7-{[(5-chloro-1-methyl-3-phenyl-1H-pyrazol-4-yl)methyl]oxy}-N-(3,4-dichlorophenyl)-6-(methyloxy)quinazolin-4-amine]
IC50 ([2]; read-out: EGFR IC50): < 0.05 µM | IC50 [3]: < 0.05 µM | IC50 [4]: < 0.05 µM

COc1cc2c(Nc3ccc(Cl)c(Cl)c3)ncnc2cc1OCC1CCCO1 (stereo not shown) [Example 183, N-(3,4-dichlorophenyl)-6-(methyloxy)-7-[(tetrahydrofuran-2-ylmethyl)oxy]quinazolin-4-amine]
IC50 ([1]; read-out: EphA2 IC50): 0.05 to 1 µM | IC50 ([2]; read-out: EGFR IC50): < 0.05 µM | IC50 [3]: < 0.05 µM | IC50 [4]: < 0.05 µM

COc1cc2c(Nc3ccc(Cl)c(Cl)c3)ncnc2cc1OCC1CCC1 [Example 187, 7-[(cyclobutylmethyl)oxy]-N-(3,4-dichlorophenyl)-6-(methyloxy)quinazolin-4-amine]
IC50 ([1]; read-out: EphA2 IC50): 0.05 to 1 µM | IC50 ([2]; read-out: EGFR IC50): < 0.05 µM | IC50 [3]: < 0.05 µM | IC50 [4]: < 0.05 µM

COc1cc2c(Nc3ccc(Cl)c(Cl)c3)ncnc2cc1OCCN1C(=O)c2ccccc2C1=O [Example 193, 2-(2-{[4-[(3,4-dichlorophenyl)amino]-6-(methyloxy)quinazolin-7-yl]oxy}ethyl)-1H-isoindole-1,3(2H)-dione]
IC50 ([1]; read-out: EphA2 IC50): 0.05 to 1 µM | IC50 ([2]; read-out: EGFR IC50): < 0.05 µM | IC50 [3]: < 0.05 µM | IC50 [4]: < 0.05 µM | IC50 ([5]; read-out: KDR IC50): < 0.05 µM

COc1cc2c(Nc3ccc(Cl)c(Cl)c3)ncnc2cc1OCc1noc(C2CCCCN2C(=O)OC(C)(C)C)n1 (stereo not shown) [Example 196, 1,1-dimethylethyl 2-[3-({[4-[(3,4-dichlorophenyl)amino]-6-(methyloxy)quinazolin-7-yl]oxy}methyl)-1,2,4-oxadiazol-5-yl]piperidine-1-carboxylate]
IC50 ([1]; read-out: EphA2 IC50): < 0.05 µM | IC50 ([2]; read-out: EGFR IC50): < 0.05 µM | IC50 [3]: < 0.05 µM | IC50 [4]: < 0.05 µM | IC50 ([5]; read-out: KDR IC50): < 0.05 µM

COc1cc2c(Nc3ccc(Cl)c(Cl)c3)ncnc2cc1OCc1nc(-c2ccc(N3CCCC3)cc2)cs1 [Example 198, N-(3,4-dichlorophenyl)-6-(methyloxy)-7-({[4-(4-pyrrolidin-1-ylphenyl)-1,3-thiazol-2-yl]methyl}oxy)quinazolin-4-amine]
IC50 ([1]; read-out: EphA2 IC50): < 0.05 µM | IC50 ([2]; read-out: EGFR IC50): < 0.05 µM | IC50 [3]: < 0.05 µM | IC50 [4]: < 0.05 µM | IC50 ([5]; read-out: KDR IC50): < 0.05 µM

CCN(CC)c1ccc(-c2csc(COc3cc4ncnc(Nc5ccc(Cl)c(Cl)c5)c4cc3OC)n2)cc1 [Example 199, N-(3,4-dichlorophenyl)-7-[({4-[4-(diethylamino)phenyl]-1,3-thiazol-2-yl}methyl)oxy]-6-(methyloxy)quinazolin-4-amine]
IC50 ([1]; read-out: EphA2 IC50): < 0.05 µM | IC50 ([2]; read-out: EGFR IC50): < 0.05 µM | IC50 [3]: < 0.05 µM | IC50 [4]: < 0.05 µM | IC50 ([5]; read-out: KDR IC50): < 0.05 µM

COc1cc2c(Nc3ccc(Cl)c(Cl)c3)ncnc2cc1OCc1nc(-c2ccccn2)cs1 [Example 202, N-(3,4-dichlorophenyl)-6-(methyloxy)-7-{[(4-pyridin-2-yl-1,3-thiazol-2-yl)methyl]oxy}quinazolin-4-amine]
IC50 ([1]; read-out: EphA2 IC50): 0.05 to 1 µM | IC50 ([2]; read-out: EGFR IC50): < 0.05 µM | IC50 [3]: < 0.05 µM | IC50 [4]: < 0.05 µM

COc1cc2c(Nc3ccc(Cl)c(Cl)c3)ncnc2cc1OCc1nc(CN2CCN(C)CC2)cs1 [Example 207, N-(3,4-dichlorophenyl)-6-(methyloxy)-7-[({4-[(4-methylpiperazin-1-yl)methyl]-1,3-thiazol-2-yl}methyl)oxy]quinazolin-4-amine]
IC50 ([1]; read-out: EphA2 IC50): 0.05 to 1 µM | IC50 ([2]; read-out: EGFR IC50): < 0.05 µM | IC50 [3]: < 0.05 µM | IC50 [4]: < 0.05 µM

COc1cc2c(Nc3ccc(Cl)c(Cl)c3)ncnc2cc1OCc1nc(N2CCN(C(=O)OC(C)(C)C)CC2)no1 [Example 215, 1,1-dimethylethyl 4-[5-({[4-[(3,4-dichlorophenyl)amino]-6-(methyloxy)quinazolin-7-yl]oxy}methyl)-1,2,4-oxadiazol-3-yl]piperazine-1-carboxylate]
IC50 ([1]; read-out: EphA2 IC50): 0.05 to 1 µM | IC50 ([2]; read-out: EGFR IC50): < 0.05 µM | IC50 [3]: < 0.05 µM | IC50 [4]: < 0.05 µM

COc1cc2c(Nc3ccc(Cl)c(Cl)c3)ncnc2cc1OCc1noc(-c2ccccc2)n1 [Example 235, N-(3,4-dichlorophenyl)-6-(methyloxy)-7-{[(5-phenyl-1,2,4-oxadiazol-3-yl)methyl]oxy}quinazolin-4-amine]
IC50 ([1]; read-out: EphA2 IC50): 0.05 to 1 µM | IC50 ([2]; read-out: EGFR IC50): < 0.05 µM | IC50 [3]: < 0.05 µM | IC50 ([5]; read-out: KDR IC50): < 0.05 µM

CCN1CCCC(c2nc(COc3cc4ncnc(Nc5ccc(Cl)c(Cl)c5)c4cc3OC)no2)C1 (stereo not shown) [Example 239, N-(3,4-dichlorophenyl)-7-({[5-(1-ethylpiperidin-3-yl)-1,2,4-oxadiazol-3-yl]methyl}oxy)-6-(methyloxy)quinazolin-4-amine]
IC50 ([1]; read-out: EphA2 IC50): 0.05 to 1 µM | IC50 ([2]; read-out: EGFR IC50): < 0.05 µM | IC50 [3]: 0.05 to 1 µM | IC50 ([5]; read-out: KDR IC50): < 0.05 µM

CCN1CCC(c2nc(COc3cc4ncnc(Nc5ccc(Cl)c(Cl)c5)c4cc3OC)cs2)CC1 [Example 242, N-(3,4-dichlorophenyl)-7-({[2-(1-ethylpiperidin-4-yl)-1,3-thiazol-4-yl]methyl}oxy)-6-(methyloxy)quinazolin-4-amine]
IC50 ([1]; read-out: EphA2 IC50): < 0.05 µM | IC50 ([2]; read-out: EGFR IC50): < 0.05 µM | IC50 [3]: < 0.05 µM | IC50 ([5]; read-out: KDR IC50): < 0.05 µM

N-(3,4-dichlorophenyl)-7-({[2-(1-ethylpiperidin-4-yl)-1,3-thiazol-4-yl]methyl}oxy)-6-(methyloxy)quinazolin-4-amine hydrochloride [Example 37]
IC50 ([1]; read-out: EphA2 IC50): < 0.05 µM | IC50 ([2]; read-out: EGFR IC50): < 0.05 µM | IC50 [3]: 0.05 to 1 µM | IC50 [4]: < 0.05 µM
